{
  "source": "patent US20180192651A1",
  "about": "“THERMAL VOLATILIZATION OF ORCO AGONISTS” (VANDERBILT UNIVERSITY, priority 2015, published 2018)",
  "key": {"[1]": {"system": "Capitate peg neuron A (cpA), a carbon dioxide sensor that does not contain Orco", "assay": "Single sensillum recordings (SSRs), maxillary palp capitate peg neuron A", "format": "in vivo, Anopheles gambiae", "conditions": "cpA is the negative control; for Puffing cpA: Puffing: airstream only for compound delivery; for Huffing cpA: Huffing: airstream in combination with heat (propane or butane torch)", "procedure": "(§1) Single sensillum recordings (SSRs) were performed on single capitate peg (cp) sensillum along the maxillary palps that house three types of olfactory receptor neurons (ORNs). 5- to 7-d-old non-blood fed female Anopheles gambiae that were maintained on 10% sucrose at 12h/12h light/dark cycle were used. Mosquitoes were immobilized by chilling at -20° C. for 1 min before removing wings and legs and then fixing on a glass coverslip covered with double-sided sticky tape. Maxillary palps were extended and held onto the double-sided sticky tape with a piece of hair brush thread. Chloridized silver wires in drawn-out glass capillaries were filled with 0.1% KCl and used as reference and recording electrodes. The reference electrode was placed in the eye, and recording electrode was brought into contact with the sensillum under the microscope (Olympus BX51WI; 800× magnification) by use of a Piezo-Patch micromaniputor (PPM5000; World Precision Instruments). The signals were digitized by the IDAC4 interface box (Syntech, Hilversum, The Netherlands) and offline analysis carried out by using analyzed with AutoSpike v. 3.2 software (Syntech). The extracellular activity of individual capitate peg sensillum ORNs are physiologically distinct and can be characterized into cpA (large), cpB (medium), and cpC (small) based on their spike amplitudes and shape. Responses were quantified by subtracting the number of spikes 1 s before odor stimulation from the number of spikes 1 s after the onset of odor stimulation from individual preparations. […] A 25 μL (VUAA1) or 25 μL aliquot (VUAnt) was then applied to a filter paper strip and placed inside a glass Pasteur pipette. The compound was then delivered by heating the pipette by a propane or butane torch right at the place of treatment for approximately 1 seconds. The compound was then delivered by puffing the odor cartridges with a controlled 0.5-s stimulus of air (5 mL/s) into a humidified airstream (10 mL/s), which was passed over the sensillum. Alternatively, 2-5 mgs of solid compound were measured into a glass Pasteur pipette. The glass pipette was then exposed to heat from a micro propane or butane torch for approximately 5 to 10 seconds. The compound was then delivered by puffing the odor cartridges with a controlled 0.5-s stimulus of air (5 mL/s) into a humidified airstream (10 mL/s), which was passed over the sensillum. Each compound was subjected to in vivo single […] recordings (SSRs) from the maxillary palp of An. gambiae. Puffing refers to use of an airstream only for compound delivery. Huffing refers to the use of an airstream in combination with heat. Specifically, huffing involved direct combustion of the solid compound via propane or butane torch. […] Capitate peg neurons B/C (cpB/C) are neurons known to contain Orco. Carbon dioxide activates only cpA, while 1-octen-3-ol is a known activator of cpB/C."}, "[2]": {"system": "Capitate peg neurons B/C (cpB/C), neurons known to contain Orco", "assay": "Single sensillum recordings (SSRs), maxillary palp capitate peg neurons B/C", "format": "in vivo, Anopheles gambiae", "conditions": "for Puffing cpB/C: Puffing: airstream only for compound delivery; for Huffing cpB/C: Huffing: airstream in combination with heat (propane or butane torch)", "procedure": "as §1"}, "[3]": {"system": "odorant receptor neuronal cells expressing Orco", "assay": "Currents in odorant receptor neuronal cells expressing Orco", "format": "cell-based, Drosophila melanogaster", "conditions": "thermally volatized compound; FIG. 3"}},
  "data": [
    {"compound": "O=C=O", "note": "[CO2, carbon dioxide, reference compound]", "values": [
      {"measurement": "Puffing cpA", "setting": "[1]", "value": "+++ (+++ = >40 spikes/s)"},
      {"measurement": "Puffing cpB/C", "setting": "[2]", "value": "− (− = <10 spikes/s)"}
    ]},
    {"compound": "C=CC(O)CCCCC", "note": "(centres unmarked) [Compound 1-octen-3-ol, 1-octen-3-ol, reference compound]", "values": [
      {"measurement": "Puffing cpA", "setting": "[1]", "value": "− (− = <10 spikes/s)"},
      {"measurement": "Puffing cpB/C", "setting": "[2]", "value": "+++ (+++ = >40 spikes/s)"}
    ]},
    {"compound": "CCn1c(SCC(=O)Nc2ccc(C)cc2)nnc1-c1cccnc1", "note": "[Compound 1]", "values": [
      {"measurement": "Huffing cpA", "setting": "[1]", "value": "− (− = <10 spikes/s)"},
      {"measurement": "Puffing cpA", "setting": "[1]", "value": "− (− = <10 spikes/s)"},
      {"measurement": "Huffing cpB/C", "setting": "[2]", "value": "+++ (+++ = >40 spikes/s)"},
      {"measurement": "Puffing cpB/C", "setting": "[2]", "value": "− (− = <10 spikes/s)"}
    ]},
    {"compound": "CCc1ccc(NC(=O)CSc2nnc(-c3cccnc3)n2CC)cc1", "note": "[Compound 2]", "values": [
      {"measurement": "currents induced in odorant receptor neuronal cells expressing Orco", "setting": "[3]", "value": "currents induced"},
      {"measurement": "Huffing cpA", "setting": "[1]", "value": "− (− = <10 spikes/s)"},
      {"measurement": "Puffing cpA", "setting": "[1]", "value": "− (− = <10 spikes/s)"},
      {"measurement": "Huffing cpB/C", "setting": "[2]", "value": "+ (+ = 10-20 spikes/s)"},
      {"measurement": "Puffing cpB/C", "setting": "[2]", "value": "− (− = <10 spikes/s)"}
    ]},
    {"compound": "CCn1c(SCC(=O)N2c3ccccc3Sc3ccccc32)nnc1-c1ccco1", "note": "[Compound 4, 2-[[4-ethyl-5-(2-furanyul)-4H-1,2,4-triazol-3-yl]thio]-1-(10OH-phenothiazin-10-yl)-ethanone]", "values": [
      {"measurement": "Huffing cpA", "setting": "[1]", "value": "+ (+ = 10-20 spikes/s)"},
      {"measurement": "Puffing cpA", "setting": "[1]", "value": "− (− = <10 spikes/s)"},
      {"measurement": "Huffing cpB/C", "setting": "[2]", "value": "+ (+ = 10-20 spikes/s)"},
      {"measurement": "Puffing cpB/C", "setting": "[2]", "value": "− (− = <10 spikes/s)"}
    ]}
  ]
}
